According to PMC4750701, “Role of Mitochondrial RNA Polymerase in the Toxicity of Nucleotide Inhibitors of Hepatitis C Virus” (Antimicrobial Agents and Chemotherapy, 2016):

Target: T1, Recombinant human DNA polymerase gamma (Homo sapiens, UniProt P54098)
T1 construct: made in house; host or cells: insect cells
T1 sequence (P54098 1-1239): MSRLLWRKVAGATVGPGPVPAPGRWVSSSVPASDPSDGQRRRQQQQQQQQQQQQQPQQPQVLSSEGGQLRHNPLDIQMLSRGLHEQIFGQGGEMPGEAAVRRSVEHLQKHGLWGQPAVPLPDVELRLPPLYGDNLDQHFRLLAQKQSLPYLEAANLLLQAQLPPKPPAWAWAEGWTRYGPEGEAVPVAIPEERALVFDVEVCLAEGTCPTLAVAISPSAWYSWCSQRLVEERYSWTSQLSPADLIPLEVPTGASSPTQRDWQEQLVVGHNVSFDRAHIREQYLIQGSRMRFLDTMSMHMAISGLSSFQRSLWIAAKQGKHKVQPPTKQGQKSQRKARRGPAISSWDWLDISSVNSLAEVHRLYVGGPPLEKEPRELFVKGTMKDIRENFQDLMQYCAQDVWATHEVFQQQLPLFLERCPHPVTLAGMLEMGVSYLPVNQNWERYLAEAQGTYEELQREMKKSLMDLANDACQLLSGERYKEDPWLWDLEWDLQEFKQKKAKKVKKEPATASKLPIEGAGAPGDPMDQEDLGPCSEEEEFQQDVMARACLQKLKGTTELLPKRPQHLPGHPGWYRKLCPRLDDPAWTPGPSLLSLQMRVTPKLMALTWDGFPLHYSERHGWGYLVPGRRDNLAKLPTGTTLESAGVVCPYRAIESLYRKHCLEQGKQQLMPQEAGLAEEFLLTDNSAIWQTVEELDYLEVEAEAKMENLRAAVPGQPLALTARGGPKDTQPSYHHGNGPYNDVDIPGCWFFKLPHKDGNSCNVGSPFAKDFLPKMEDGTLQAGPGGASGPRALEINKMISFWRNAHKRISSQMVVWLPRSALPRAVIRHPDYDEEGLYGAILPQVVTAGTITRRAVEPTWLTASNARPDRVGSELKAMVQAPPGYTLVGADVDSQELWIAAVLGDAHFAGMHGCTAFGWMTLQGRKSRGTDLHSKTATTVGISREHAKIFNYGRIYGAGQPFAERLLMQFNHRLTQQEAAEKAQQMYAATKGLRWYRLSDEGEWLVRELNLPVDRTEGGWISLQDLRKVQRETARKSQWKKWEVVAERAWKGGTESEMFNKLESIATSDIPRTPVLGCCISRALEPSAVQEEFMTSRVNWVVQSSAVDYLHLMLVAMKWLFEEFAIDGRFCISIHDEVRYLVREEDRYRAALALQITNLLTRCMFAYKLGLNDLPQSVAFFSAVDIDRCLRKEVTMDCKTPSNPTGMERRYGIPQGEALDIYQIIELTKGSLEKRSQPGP
T1 sequence (Q9UHN1 26-485 partner limits assumed): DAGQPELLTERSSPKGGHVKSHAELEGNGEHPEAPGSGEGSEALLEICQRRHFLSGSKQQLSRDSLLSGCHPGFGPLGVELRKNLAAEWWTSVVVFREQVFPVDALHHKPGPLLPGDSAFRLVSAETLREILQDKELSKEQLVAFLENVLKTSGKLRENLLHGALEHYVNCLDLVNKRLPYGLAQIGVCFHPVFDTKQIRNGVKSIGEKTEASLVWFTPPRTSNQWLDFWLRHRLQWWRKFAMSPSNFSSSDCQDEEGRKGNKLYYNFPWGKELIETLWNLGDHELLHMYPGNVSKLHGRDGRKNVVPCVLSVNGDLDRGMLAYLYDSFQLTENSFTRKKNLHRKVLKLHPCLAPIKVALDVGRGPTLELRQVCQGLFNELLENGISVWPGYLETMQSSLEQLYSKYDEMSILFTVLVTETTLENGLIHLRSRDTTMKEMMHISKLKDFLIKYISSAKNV
Assay: Inhibition of human DNA polymerase gamma
Assay type: biochemical
Settings: triphosphate form of the compound tested; read-out: Mean IC50 ± SD for DNA Pol γ
Description: Activated fish sperm DNA was purchased from USB/Affymetrix (Santa Clara, CA) and used as a template for the DNA polymerases alpha, beta, and gamma. The DNA template used in the RNA Pol II assay was a 1,188-bp restriction fragment containing the cytomegalovirus (CMV) immediate early promoter (Promega, Madison, WI). The RNA and DNA oligonucleotides used in the mitochondrial RNA polymerase assay (see Table S1 in the supplemental material) were synthesized and PAGE purified by Thermo Scientific/Dharmacon (Lafayette, CO). RNA primer R12 was 5′-^32P-phosphorylated with [γ-^32P]ATP (3,000 Ci/mmol) and T4 kinase (New England BioLabs, Ipswich, MA).
Human DNA polymerase alpha, isolated from HeLa cell extracts, was from CHIMERx (Madison, WI). Recombinant human DNA polymerase beta, expressed in E. coli, was a gift from Zucai Suo at The Ohio State University. Recombinant human DNA polymerase gamma (including both the large subunit and the small subunit) was cloned, expressed, and purified from insect cells by Gilead Sciences (Foster City, CA) ([13]). RNA PolII was purchased as part of the HeLaScribe nuclear extract in vitro transcription system kit from Promega (Madison, WI). The recombinant human PolRMT and the transcription factors mitochondrial transcription factor A (mtTFA) and B2 (mtTFB2) were purchased from Enzymax (Lexington, KY). FLAG epitope-tagged RNA PolI and PolIII complexes were isolated from rat NSN1 cells and HeLa cells, respectively ([17], [18]). The inhibition of DNA polymerases alpha, beta, and gamma, PolRMT, and PolII and the rate of single-nucleotide incorporation by PolRMT have been described previously in detail ([12], [13], [19]). Inhibition of RNA PolI and PolIII was studied using published methods ([20], [21]). All concentrations were final unless noted otherwise. For the RNA PolI inhibition assay, a reaction mixture containing 50 mM HEPES (pH 7.9), 20% glycerol, 100 mM KCl, 1 mM dithiothreitol (DTT), 50 μg/ml calf thymus DNA, 4 mM MgCl2, 5 or 80 μM UTP (0.25 μl of [5,6-^3H]UTP, >25 Ci/mmol; PerkinElmer), 1 mM noncompeting NTP, competing NTP (5 μM for GTP, CTP, and UTP and 25 μM for ATP), and various concentrations (0 to 500 μM) of NTP analogs was preincubated at 30°C for 5 min. […] After incubation at 30°C for 20 min to 1 h, the reactions were terminated by pipetting the mixtures onto DEAE-cellulose discs (DE81; Whatman), and the products analyzed as described previously ([20], [21]).

Compound	IC50
CCOc1nc(N)nc2c1ncn2[C@@H]1O[C@@H]2COP(=O)(OC(C)C)O[C@H]2[C@@]1(C)F (stereo partly shown) [PSI-938]	> 200 µM
CC(C)OC(=O)[C@H](C)N[P@](=O)(OC[C@H]1O[C@@](C#N)(c2ccc3c(N)ncnn23)[C@](C)(O)[C@@H]1OC(=O)C(C)C)Oc1ccccc1 [GS-6620]	> 200 µM
C[C@@]1(O)[C@H](O)[C@@H](CO)O[C@H]1n1ccc(N)nc1=O [2′CMeC, 2′-C-methyl (2′CMe) cytidine]	> 200 µM
C[C@@]1(O)[C@H](O)[C@@H](COP(=O)(O)OP(=O)(O)OP(=O)(O)O)O[C@H]1n1cnc2c(=O)[nH]c(N)nc21 [2′CMeGTP]	> 200 µM
CC(C)OC(=O)[C@H](C)N[P@](=O)(OC[C@H]1O[C@@H](n2ccc(=O)[nH]c2=O)[C@](C)(F)[C@@H]1O)Oc1ccccc1 [Sofosbuvir]	> 200 µM
[N-]=[N+]=N[C@]1(CO)O[C@@H](n2ccc(N)nc2=O)[C@H](O)[C@@H]1O [4′-AzidoC, 4′-azido cytidine]	> 200 µM
C[C@@]1(F)[C@H](O)[C@@H](CO)O[C@H]1n1ccc(N)nc1=O [PSI-6130]	> 200 µM
